Experimental data: patent US12503455B2, “Nucleic acid-binding photoprobes and uses thereof” (Arrakis Therapeutics, Inc., priority 2017, dated 2025)

Legend:
[1] = test system: Aptamer 21; assay: Biotin-photoaffinity probe cross-linking and streptavidin bead pull-down gel assay; assay type: binding; conditions: Aptamer 21 compared with Aptamer 21-E
[2] = test system: Aptamer 21; assay: Capture of Aptamer 21 from a defined mixture of RNAs; assay type: binding
Procedure: A sample of folded RNA was prepared containing 1 μM each of Myc HP PA, Aptamer 21, FMN, MYC_3WJ-HP_N3G, and PreQ1 RNAs in folding buffer (20 mM TrisHCl pH 8, 100 mM KCl, 3 mM MgCl2). A 95 μL sample of this solution was added to a 5 μL aliquot of 0.2 mM ARK-670 (probe) or ARK-139 (control) in DMSO. The reaction was incubated for 30 min at 37° C., irradiated with long wave UV light (˜365 nm) for 30 min in a UV crosslinker (Fisher Scientific), and then cooled on ice. The excess probe and buffer was then removed by passing the sample through an Illustra MicroSpin G-25 spin column (GE Healthcare) according to the manufacturer's protocol.
For each treatment, a 75 μL aliquot of the crosslinked RNA was mixed with 0.75 μL of 10% Tween-20 and 0.45 μL of 0.5 M EDTA pH 8 solution. A 50 μL aliquot of MyOne Streptavidin C1 Dynabead slurry (Thermo) was captured on a magnet, washed twice with 50 μL of 1× bind/wash buffer (20 mM TrisHCl pH 7, 100 mM KCl, 0.1% Tween-20), and then resuspended in 50 μL of the crosslinked RNA sample. The bead suspension was rotated at room temperature for 60 min and then washed twice with 100 μL of 1× bind/wash solution. […]
To remove excess primer, the sample was mixed with 4.5 μL of ExoSAP-IT, incubated at 37° C. for 15 min, and then quenched with 1 μL of 0.5 M EDTA pH 8. […] The concentration was determined by absorbance at 260 nm. […]

COC(=O)C1=C(COCc2cn(CCOCCOCCNC(=O)[C@H](CCCCNC(=O)c3ccc(N=[N+]=[N-])cc3)NC(=O)CCCC[C@@H]3SC[C@@H]4NC(=O)N[C@@H]43)nn2)NC(c2ccncc2)=NC1c1ccc(F)cc1Cl (stereo partly drawn) [ARK-670]
pull-down of RNA on streptavidin beads after cross-linking [1]: Only the Aptamer 21 RNA showed significant pull-down | RT pausing signal from probe adducts ([2]; Aptamer 21, Aptamer 21-E, or mixture of Aptamer 21 and four other RNAs): specific for Aptamer 21 | enrichment of RNAs after cross-linking, avidin bead enrichment and sequencing ([2]; mixture of Aptamer 21 and four other RNAs): only Aptamer 21 was enriched
